Results from ChEMBL document CHEMBL2074229, “Inhibition of drug transport by genistein in multidrug-resistant cells expressing P-glycoprotein” (Biochem Pharmacol, 1997).

Target: ATP-dependent translocase ABCB1 (Homo sapiens, UniProt P08183)
Assay: TP_TRANSPORTER: inhibition of Rhodamine 123 efflux (R123: 10 uM, Genistein: 200 uM) in BALB/c-3T3-1000 cells (MDR1-transfected)
Type: functional, cell-based
Settings: mouse, balb/c-3t3-1000, 200 µM

Sequence of ATP-dependent translocase ABCB1 (P08183 whole entry): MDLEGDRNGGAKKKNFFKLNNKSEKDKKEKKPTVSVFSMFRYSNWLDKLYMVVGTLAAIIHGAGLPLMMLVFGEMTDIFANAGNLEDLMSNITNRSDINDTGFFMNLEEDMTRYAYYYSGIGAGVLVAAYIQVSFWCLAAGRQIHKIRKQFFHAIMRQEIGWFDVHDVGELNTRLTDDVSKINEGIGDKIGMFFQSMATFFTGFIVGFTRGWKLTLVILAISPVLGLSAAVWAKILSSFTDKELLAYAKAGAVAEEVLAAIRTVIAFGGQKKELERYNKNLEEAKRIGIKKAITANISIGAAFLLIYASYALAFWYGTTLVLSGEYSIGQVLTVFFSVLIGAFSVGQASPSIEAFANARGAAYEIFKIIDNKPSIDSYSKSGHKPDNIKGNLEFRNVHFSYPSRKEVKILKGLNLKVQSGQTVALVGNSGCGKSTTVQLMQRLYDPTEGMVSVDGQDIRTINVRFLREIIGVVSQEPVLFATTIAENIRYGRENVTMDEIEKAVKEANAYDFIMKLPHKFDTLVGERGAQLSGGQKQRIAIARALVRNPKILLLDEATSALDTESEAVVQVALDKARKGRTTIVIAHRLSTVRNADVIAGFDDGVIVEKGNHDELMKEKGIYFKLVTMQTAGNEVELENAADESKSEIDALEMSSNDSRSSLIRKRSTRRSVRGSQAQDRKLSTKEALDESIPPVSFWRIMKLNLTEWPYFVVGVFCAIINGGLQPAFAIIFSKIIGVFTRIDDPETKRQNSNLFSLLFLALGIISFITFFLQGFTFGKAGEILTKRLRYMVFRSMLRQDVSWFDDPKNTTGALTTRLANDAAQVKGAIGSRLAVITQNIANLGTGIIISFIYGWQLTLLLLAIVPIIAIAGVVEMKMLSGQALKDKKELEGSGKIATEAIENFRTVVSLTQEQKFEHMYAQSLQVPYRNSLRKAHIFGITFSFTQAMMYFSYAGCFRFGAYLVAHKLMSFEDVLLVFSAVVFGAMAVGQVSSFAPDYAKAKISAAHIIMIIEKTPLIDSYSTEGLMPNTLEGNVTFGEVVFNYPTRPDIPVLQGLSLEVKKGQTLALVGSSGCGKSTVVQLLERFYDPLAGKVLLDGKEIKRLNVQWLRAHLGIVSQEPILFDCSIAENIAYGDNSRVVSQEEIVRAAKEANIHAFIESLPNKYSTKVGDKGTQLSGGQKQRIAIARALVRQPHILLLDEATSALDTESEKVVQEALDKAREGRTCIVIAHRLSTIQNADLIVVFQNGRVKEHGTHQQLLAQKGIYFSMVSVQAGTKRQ

- Inhibition: inhibitor [50-60 % inhibition]
SMILES: O=c1c(-c2ccc(O)cc2)coc2cc(O)cc(O)c12 [GENISTEIN]
